Results on 2 compounds are retold here after patent US7887794B2, “Lactic acid bacteria and their use in the treatment of cancer” (Bio-K Plus International, Inc., priority 2001, dated 2011).

One experiment relates to LS 513 cells. In words: apoptosis / cell cycle by flow cytometry with propidium iodide. It is filed as cell-based, human. Particulars: in the presence of intact (live or irradiated) bacteria; dose dependent. The procedure: A concentration of 5×10^4 cells per mL, with 6 mL per well, is used in order to obtain 3×10^5 cells per sample. The cells are prepared as indicated above. The different products are added to the wells, and an incubation of 48 hours is done. Following the incubation, the supernatants of the cells are collected in different 15 mL tubes and centrifuged at 1500 RPM during 5 minutes. The cellular pellets are then collected by decantation of the supernatant and put on ice. This stage consists in recuperating the cells in suspension. Afterwards, the adherent cellular sheet is washed with 0.5 mL trypsin-EDTA, then 0.2 mL trypsin-EDTA is added to each well to allow the cells to detach when they are incubated for around 8 minutes in the incubator at 37° C. The cells are suspended in 3 mL of complete RPMI 10% FCS to stop the enzymatic activity of trypsin. […] Different peaks are formed due to the differences in fluorescence existing between each phase of the cellular cycle. The more the content of intact DNA is high, the more the fluorescence is high and vice-versa. The program measures the percentage of fluorescence that the large spike forms under the corresponding spike of G0-G1, this spike represents pieces of fragmented DNA, consequence of the cleavage of DNA by different enzymes activated during apoptosis.

For another experiment, the system named is human colon cancer. Particulars: mice; cited from earlier work.
In a further experiment the test system is colon cancer cells. In words: addition of butyrate, apoptosis of colon cancer cells in vitro. In kind it is cell-based, human. The procedure: The plate of cancer cells containing 3×10^5 cells per well is incubated overnight to allow the cells to adhere. Then, the different concentrations of butyric acid (Sigma, St-Louis, USA) are added to the wells containing the adherent cells and the culture medium, the complete RPMI. After this addition, a 48 hour incubation is done in order to measure the percentage of apoptosis according to the technique described hereinafter.
A dose of 5FU (100 μg/mL) as well as different doses (2 mM and 4 mM) of butyric acid (ba) are added to the cancerous colon cells. Apoptosis is measures after a 48 hour incubation.

For `O=c1[nH]cc(F)c(=O)[nH]1` [5FU, 5-fluorouracil], the “efficacy of the anticancer agent” value in the experiment with LS 513 cells was “considerably increased”.

For `CCCC(=O)O` [butyric acid], the “in vivo growth of human colon cancer” value in the experiment on human colon cancer is “inhibits the in vivo growth”. Further, the “apoptosis in colon cancer cells in vitro” value in the experiment with colon cancer cells is “causes apoptosis”.
